Biological target: T1, mutant B-RAF (Homo sapiens, UniProt P15056, V600E)
T1 construct: purchased Upstate (Charlottesville, Va.)
Assay: RAF biochemical assay (MEK-1 phosphorylation, anti-phospho MEK1/2 detection)
Conditions: for inhibition at 10 µM: read-out: Mutant B-RAF % inhibition; for IC50: read-out: Mutant B-RAF IC50
Outline: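 Detection is by ELISA: after a 30 min room-temperature reaction, plate-captured GST-MEK-1 is probed with anti-phospho MEK1/2, then an AP-tagged secondary antibody with fluorescent Attophos read-out.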

T1 sequence (P15056 whole entry V600E): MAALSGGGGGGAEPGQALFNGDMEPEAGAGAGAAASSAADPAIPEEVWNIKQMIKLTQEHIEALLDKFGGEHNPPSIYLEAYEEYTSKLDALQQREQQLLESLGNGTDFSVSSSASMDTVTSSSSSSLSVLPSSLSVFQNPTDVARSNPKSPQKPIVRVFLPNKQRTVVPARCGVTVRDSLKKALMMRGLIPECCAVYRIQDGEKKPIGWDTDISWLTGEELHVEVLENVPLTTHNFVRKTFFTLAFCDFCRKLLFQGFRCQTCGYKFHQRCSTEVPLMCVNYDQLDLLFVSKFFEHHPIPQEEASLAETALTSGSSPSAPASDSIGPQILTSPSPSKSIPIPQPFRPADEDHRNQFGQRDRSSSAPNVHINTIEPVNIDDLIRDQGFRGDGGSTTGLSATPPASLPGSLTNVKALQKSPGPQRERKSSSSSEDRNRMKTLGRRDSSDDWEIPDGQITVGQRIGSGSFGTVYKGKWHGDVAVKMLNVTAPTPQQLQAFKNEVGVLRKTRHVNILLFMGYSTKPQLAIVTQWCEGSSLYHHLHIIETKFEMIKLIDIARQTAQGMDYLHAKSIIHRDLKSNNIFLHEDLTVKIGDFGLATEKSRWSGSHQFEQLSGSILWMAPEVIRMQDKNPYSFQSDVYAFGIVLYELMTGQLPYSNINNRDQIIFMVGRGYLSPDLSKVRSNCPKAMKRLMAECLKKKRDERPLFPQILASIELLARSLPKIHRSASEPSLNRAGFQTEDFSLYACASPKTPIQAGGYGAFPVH

Structure (SMILES)	IC50 [µM]	also measured
N#Cc1ccc(S(=O)(=O)N2CCC(Nc3nccc(-c4c(-c5ccc(F)cc5)nc5occn45)n3)CC2)cc1 [Example 240, 4-{[4-({4-[6-(4-fluorophenyl)imidazo[2,1-b][1,3]oxazol-5-yl]pyrimidin-2-yl}amino)piperidin-1-yl]sulfonyl}benzonitrile]		inhibition at 10 µM: 44%
Cc1cn2c(-c3ccnc(NC4CCN(C(=O)NCc5ccccc5)CC4)n3)c(-c3ccc(F)cc3)nc2s1 [Example 241, N-benzyl-4-({4-[6-(4-fluorophenyl)-2-methylimidazo[2,1-b][1,3]thiazol-5-yl]pyrimidin-2-yl}amino)piperidine-1-carboxamide]	2.53	
Cc1cn2c(-c3ccnc(NC4CCN(C(=O)NCc5ccco5)CC4)n3)c(-c3ccc(F)cc3)nc2s1 [Example 242, 4-({4-[6-(4-fluorophenyl)-2-methylimidazo[2,1-b][1,3]thiazol-5-yl]pyrimidin-2-yl}amino)-N-(2-furylmethyl)piperidine-1-carboxamide]		inhibition at 10 µM: 67%
O=C(NCc1ccco1)N1CCC(Nc2nccc(-c3c(-c4ccc(F)c(F)c4)nc4sccn34)n2)CC1 [Example 243, 4-({4-[6-(3,4-difluorophenyl)imidazo[2,1-b][1,3]thiazol-5-yl]pyrimidin-2-yl}amino)-N-(2-furylmethyl)piperidine-1-carboxamide]		inhibition at 10 µM: 76%
c1ccc2cc(-c3nc4sccn4c3-c3ccnc(NC4CCNCC4)n3)ccc2c1 [Example 244, 4-[6-(2-naphthyl)imidazo[2,1-b][1,3]thiazol-5-yl]-N-piperidin-4-ylpyrimidin-2-amine]		inhibition at 10 µM: 47%
COc1cccc(-c2nc3sccn3c2-c2ccnc(NC3CCN(C(=O)Cc4ccc(N(C)C)cc4)CC3)n2)c1 [Example 245, N-(1-{[4-(dimethylamino)phenyl]acetyl}piperidin-4-yl)-4-[6-(3-methoxyphenyl)imidazo[2,1-b][1,3]thiazol-5-yl]pyrimidin-2-amine]	2.46	
Cc1ccc(-c2nc3scc(C)n3c2-c2ccnc(NC3CCNCC3)n2)cc1 [Example 246, 4-[3-methyl-6-(4-methylphenyl)imidazo[2,1-b][1,3]thiazol-5-yl]-N-piperidin-4-ylpyrimidin-2-amine]	> 10	
O=[N+]([O-])c1ccc(-c2nc3sccn3c2-c2ccnc(NC3CCNCC3)n2)cc1 [Example 247, 4-[6-(4-nitrophenyl)imidazo[2,1-b][1,3]thiazol-5-yl]-N-piperidin-4-ylpyrimidin-2-amine]		inhibition at 2 µM (@ 2 uM): 9%
Cc1nc(S(=O)(=O)N2CCC(Nc3nccc(-c4c(-c5ccc(F)cc5)nc5occn45)n3)CC2)cn1C [Example 248, N-{1-[(1,2-dimethyl-1H-imidazol-4-yl)sulfonyl]piperidin-4-yl}-4-[6-(4-fluorophenyl)imidazo[2,1-b][1,3]oxazol-5-yl]pyrimidin-2-amine]	0.931	
c1cc(-c2c(-c3ccc4c(c3)OCCO4)nc3sccn23)nc(NC2CCNCC2)n1 [Example 249, 4-[6-(2,3-dihydro-1,4-benzodioxin-6-yl)imidazo[2,1-b][1,3]thiazol-5-yl]-N-piperidin-4-ylpyrimidin-2-amine]		inhibition at 10 µM: 58%
c1ccc(-c2ccc(-c3nc4sccn4c3-c3ccnc(NC4CCNCC4)n3)cc2)cc1 [Example 250, 4-(6-biphenyl-4-ylimidazo[2,1-b][1,3]thiazol-5-yl)-N-piperidin-4-ylpyrimidin-2-amine]		inhibition at 3 µM (@ 3 uM): 2%
O=C(NCc1ccccc1)N1CCC(Nc2nccc(-c3c(-c4ccc(F)c(F)c4)nc4sccn34)n2)CC1 [Example 251, N-benzyl-4-({4-[6-(3,4-difluorophenyl)imidazo[2,1-b][1,3]thiazol-5-yl]pyrimidin-2-yl}amino)piperidine-1-carboxamide]		inhibition at 10 µM: 63%
Cc1ccc(-c2nc3scc(C)n3c2-c2ccnc(NC3CCN(C(=O)Nc4ccc(N(C)C)cc4)CC3)n2)cc1 [Example 252, N-[4-(dimethylamino)phenyl]-4-({4-[3-methyl-6-(4-methylphenyl)imidazo[2,1-b][1,3]thiazol-5-yl]pyrimidin-2-yl}amino)piperidine-1-carboxamide]	> 3	
CN(C)c1ccc(NC(=O)N2CCC(Nc3nccc(-c4c(-c5ccc([N+](=O)[O-])cc5)nc5sccn45)n3)CC2)cc1 [Example 253, N-[4-(dimethylamino)phenyl]-4-({4-[6-(4-nitrophenyl)imidazo[2,1-b][1,3]thiazol-5-yl]pyrimid-in-2-yl}amino)piperidine-1-carboxamide]	> 3	
CN(C)c1ccc(NC(=O)N2CCC(Nc3nccc(-c4c(-c5ccc(-c6ccccc6)cc5)nc5sccn45)n3)CC2)cc1 [Example 254, 4-{[4-(6-biphenyl-4-ylimidazo[2,1-b][1,3]thiazol-5-yl)pyri-midin-2-yl]amino)-N-[4-(di-methylamino)phenyl]piperidine-1-carboxamide]	> 3	
O=S(=O)(c1ccc(Cl)cc1)N1CCC(Nc2nccc(-c3c(-c4ccc(F)cc4)nc4sccn34)n2)CC1 [Example 255, N-{1-[(4-chlorophenyl)sulfonyl]piperidin-4-yl}-4-[6-(4-fluorophenyl)imidazo[2,1-b][1,3]thiazol-5-yl]pyrimidin-2-amine]	0.696	
NC(=O)N1CCC(Nc2nccc(-c3c(-c4ccc(F)cc4)nc4occn34)n2)CC1 [Example 256, 4-({4-[6-(4-fluorophenyl)imidazo[2,1-b][1,3]oxazol-5-yl]pyrimidin-2-yl}amino)piperidine-1-carboxamide]	> 1	
Cc1cn2c(-c3ccnc(NC4CCN(S(=O)(=O)c5ccc(Cl)cc5)CC4)n3)c(-c3ccc(F)cc3)nc2s1 [Example 257, N-{1-[(4-chlorophenyl)sulfonyl]piperidin-4-yl}-4-[6-(4-fluorophenyl)-2-methylimidazo[2,1-b][1,3]thiazol-5-yl]pyrimidin-2-amine]	0.073	
Cc1cn2c(-c3ccnc(NC4CCN(S(=O)(=O)c5ccc(C(=O)O)cc5)CC4)n3)c(-c3ccc(F)cc3)nc2s1 [Example 258, 4-{[4-({4-[6-(4-fluorophenyl)-2-methylimidazo[2,1-b][1,3]thiazol-5-yl]pyrimidin-2-yl}amino)piperidin-1-yl]sulfonyl}benzoic acid]	0.322	
CC(=O)Nc1ccc(-c2nc3sccn3c2-c2ccnc(NC3CCN(S(=O)(=O)c4ccc(Cl)cc4)CC3)n2)cc1 [Example 259, N-(4-{5-[2-({1-[(4-chlorophenyl)sulfonyl]piperidin-4-yl}amino)pyrimidin-4-yl]imidazo[2,1-b][1,3]thiazol-6-yl}phenyl)acetamide]	> 3	
O=S(=O)(c1ccc(F)cc1)N1CCC(Nc2nccc(-c3c(-c4ccc5c(c4)OCCO5)nc4sccn34)n2)CC1 [Example 260, 4-[6-(2,3-dihydro-1,4-benzodioxin-6-yl)imidazo[2,1-b][1,3]thiazol-5-yl]-N-{1-[(4-fluorophenyl)sulfonyl]piperidin-4-yl}pyrimidin-2-amine]	0.186	
COc1ccccc1-c1nc2sccn2c1-c1ccnc(NC2CCNCC2)n1 [Example 261, 4-[6-(2-methoxyphenyl)imidazo[2,1-b][1,3]thiazol-5-yl]-N-piperidin-4-ylpyrimidin-2-amine]	> 3	
COc1ccc(-c2nc3sccn3c2-c2ccnc(NC3CCN(S(=O)(=O)c4ccc(Cl)cc4)CC3)n2)cc1 [Example 262, N-{1-[(4-chlorophenyl)sulfonyl]piperidin-4-yl}-4-[6-(4-methoxyphenyl)imidazo[2,1-b][1,3]thiazol-5-yl]pyrimidin-2-amine]	> 3	

Source: patent US7501430B2 (ArQule, Inc., priority 2006, dated 2009)
